From patent US8198438B2, “Pyrrolotriazine kinase inhibitors” (Bristol-Myers Squibb Company, priority 2007, dated 2012) come the findings set out here.

Common to all, as to assay type: biochemical
One experiment addresses T1, GSK3-β (Homo sapiens, UniProt P49841).
T1 construct: His
In words: GSK3-β kinase assay. The conditions noted are these: ATP 30 μM; His-GSK3B 2.4 nM; Caliper LabChip 3000; read-out: GSK-3β IC50. As for the experimental part: The assays were performed in U-bottom 384-well plates. The final assay volume was 30 μl prepared from 15 μl additions of enzyme and substrates (fluoresceinated peptide FL-GSK substrate and ATP) and test compounds in assay buffer (100 mM HEPES pH 7.2, 10 mM MgCl2, 0.015% Brij35, 25 mM β-glycerolphosphate and 4 mM DTT). The reaction was initiated by the combination of GSK3-β with substrates and test compounds. The reaction was incubated at room temperature for 60 min. and terminated by adding 30 μl of 35 mM EDTA to each sample. The reaction mixture was analyzed on the Caliper LabChip 3000 (Caliper, Hopkinton, Mass.) by electrophoretic separation of the fluorescent substrate and phosphorylated product Inhibition data were calculated by comparison to no enzyme control reactions for 100% inhibition and vehicle-only reactions for 0% inhibition. The final concentration of reagents in the assays is ATP, 30 μM; FL-GSK substrate, 1.5 μM; His-GSK3B, 2.4 nM; and DMSO, 1.6%.

In a further experiment the target is IGF1-receptor (Homo sapiens, UniProt P08069). The experiment can be described thus: IGF1-Receptor Tyrosine Kinase Assay. The following applies: ATP 25 μM; IGF1-Receptor 14 nM; Caliper LabChip 3000; read-out: IGF1R IC50. Here is the method:
D. IGF1-Receptor Tyrosine Kinase Assay
The assays were performed in U-bottom 384-well plates. The final assay volume was 30 μl prepared from 15 μl additions of enzyme and substrates (fluoresceinated IGF1R substrate peptide and ATP) and test compounds in assay buffer (100 mM HEPES pH 7.4, 10 mM MnCl2, 0.015% Brij35 and 4 mM DTT). The reaction was initiated by the combination of IGF1-receptor with substrates and test compounds. The reaction was incubated at room temperature for 60 min. and terminated by adding 30 μl of 35 mM EDTA to each sample. The reaction mixture was analyzed on the Caliper LabChip 3000 by electrophoretic separation of the fluorescent substrate and phosphorylated product. Inhibition data were calculated by comparison to no enzyme control reactions for 100% inhibition and vehicle-only reactions for 0% inhibition. The final concentration of reagents in the assays is ATP, 25 μM; FL-peptide, 1.5 μM; IGF1-Receptor, 14 nM; and DMSO, 1.6%. Dose response curves were generated to determine the concentration required inhibiting 50% of kinase activity (IC50). Compounds were dissolved at 10 mM in dimethylsulfoxide (DMSO) and evaluated at eleven concentrations, each in duplicate. IC50 values were derived by non-linear regression analysis

For a further experiment, the target named is GST-Met (Homo sapiens, UniProt P08581). The experiment can be described thus: Met Kinase Assay. The following applies: 1 μM ATP; 33P γ-ATP, poly(Glu/Tyr); 1 h at 30° C. As for the experimental part:
Kinase reactions consisted of 0.75 ng of baculovirus expressed GST-Met, 3 ug poly(Glu/Tyr) (Sigma), 0.12 μCi 33P γ-ATP, 1 μM ATP in 30 μl kinase buffer (20 mm TRIS-C1, 5 mM MnCl2, 0.1 mg/ml BSA, 0.5 mM DTT). Reactions were incubated for 1 h at 30° C. and stopped by the addition of cold trichloroacetic acid (TCA) to a final concentration 8%. TCA precipitates were collected onto GF/C unifilter plates using a Filtermate universal harvester and the filters were quantitated using a TopCount 96-well liquid scintillation counter. Dose response curves were generated to determine the concentration required to inhibit 50% of kinase activity (IC50). Compounds were dissolved at 10 mM in dimethylsulfoxide (DMSO) and evaluated at seven concentrations, each in triplicate.

GST-Met, sequence (P08581 25-1390): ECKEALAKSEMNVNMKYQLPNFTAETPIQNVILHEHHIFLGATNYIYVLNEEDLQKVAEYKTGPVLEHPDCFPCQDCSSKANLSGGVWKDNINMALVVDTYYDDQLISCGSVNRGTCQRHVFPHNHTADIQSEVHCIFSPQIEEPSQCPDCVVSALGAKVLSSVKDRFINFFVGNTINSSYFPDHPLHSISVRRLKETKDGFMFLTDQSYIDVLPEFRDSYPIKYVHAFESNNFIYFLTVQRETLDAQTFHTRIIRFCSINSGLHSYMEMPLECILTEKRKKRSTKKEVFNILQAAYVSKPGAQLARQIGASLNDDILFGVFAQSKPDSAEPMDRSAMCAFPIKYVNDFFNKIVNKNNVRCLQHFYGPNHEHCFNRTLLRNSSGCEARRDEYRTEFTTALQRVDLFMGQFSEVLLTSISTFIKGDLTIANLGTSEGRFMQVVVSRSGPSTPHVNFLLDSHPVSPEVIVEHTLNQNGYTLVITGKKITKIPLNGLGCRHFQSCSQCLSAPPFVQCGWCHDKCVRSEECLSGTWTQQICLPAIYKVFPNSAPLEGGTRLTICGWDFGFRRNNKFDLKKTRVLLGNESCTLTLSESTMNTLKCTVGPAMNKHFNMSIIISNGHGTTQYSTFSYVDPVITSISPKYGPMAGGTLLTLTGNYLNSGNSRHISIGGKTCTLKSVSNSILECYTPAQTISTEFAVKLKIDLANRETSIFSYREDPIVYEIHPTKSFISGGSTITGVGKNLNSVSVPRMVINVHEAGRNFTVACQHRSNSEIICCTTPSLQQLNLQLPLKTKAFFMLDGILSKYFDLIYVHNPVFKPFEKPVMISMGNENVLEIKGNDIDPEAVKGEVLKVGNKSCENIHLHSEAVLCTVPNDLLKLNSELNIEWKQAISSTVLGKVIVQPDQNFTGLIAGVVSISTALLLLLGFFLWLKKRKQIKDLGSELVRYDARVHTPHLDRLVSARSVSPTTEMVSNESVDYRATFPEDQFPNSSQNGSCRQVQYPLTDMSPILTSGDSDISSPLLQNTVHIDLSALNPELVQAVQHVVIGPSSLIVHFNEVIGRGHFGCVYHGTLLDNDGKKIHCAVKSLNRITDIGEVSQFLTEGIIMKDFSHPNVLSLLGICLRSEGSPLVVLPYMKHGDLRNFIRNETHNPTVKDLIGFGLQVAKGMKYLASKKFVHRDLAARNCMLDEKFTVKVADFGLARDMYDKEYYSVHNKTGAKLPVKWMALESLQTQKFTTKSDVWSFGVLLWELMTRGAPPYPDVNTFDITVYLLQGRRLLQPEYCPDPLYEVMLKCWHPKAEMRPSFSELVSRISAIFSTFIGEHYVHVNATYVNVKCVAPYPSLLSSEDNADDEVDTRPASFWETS
IGF1-receptor, sequence (P08069 31-1367): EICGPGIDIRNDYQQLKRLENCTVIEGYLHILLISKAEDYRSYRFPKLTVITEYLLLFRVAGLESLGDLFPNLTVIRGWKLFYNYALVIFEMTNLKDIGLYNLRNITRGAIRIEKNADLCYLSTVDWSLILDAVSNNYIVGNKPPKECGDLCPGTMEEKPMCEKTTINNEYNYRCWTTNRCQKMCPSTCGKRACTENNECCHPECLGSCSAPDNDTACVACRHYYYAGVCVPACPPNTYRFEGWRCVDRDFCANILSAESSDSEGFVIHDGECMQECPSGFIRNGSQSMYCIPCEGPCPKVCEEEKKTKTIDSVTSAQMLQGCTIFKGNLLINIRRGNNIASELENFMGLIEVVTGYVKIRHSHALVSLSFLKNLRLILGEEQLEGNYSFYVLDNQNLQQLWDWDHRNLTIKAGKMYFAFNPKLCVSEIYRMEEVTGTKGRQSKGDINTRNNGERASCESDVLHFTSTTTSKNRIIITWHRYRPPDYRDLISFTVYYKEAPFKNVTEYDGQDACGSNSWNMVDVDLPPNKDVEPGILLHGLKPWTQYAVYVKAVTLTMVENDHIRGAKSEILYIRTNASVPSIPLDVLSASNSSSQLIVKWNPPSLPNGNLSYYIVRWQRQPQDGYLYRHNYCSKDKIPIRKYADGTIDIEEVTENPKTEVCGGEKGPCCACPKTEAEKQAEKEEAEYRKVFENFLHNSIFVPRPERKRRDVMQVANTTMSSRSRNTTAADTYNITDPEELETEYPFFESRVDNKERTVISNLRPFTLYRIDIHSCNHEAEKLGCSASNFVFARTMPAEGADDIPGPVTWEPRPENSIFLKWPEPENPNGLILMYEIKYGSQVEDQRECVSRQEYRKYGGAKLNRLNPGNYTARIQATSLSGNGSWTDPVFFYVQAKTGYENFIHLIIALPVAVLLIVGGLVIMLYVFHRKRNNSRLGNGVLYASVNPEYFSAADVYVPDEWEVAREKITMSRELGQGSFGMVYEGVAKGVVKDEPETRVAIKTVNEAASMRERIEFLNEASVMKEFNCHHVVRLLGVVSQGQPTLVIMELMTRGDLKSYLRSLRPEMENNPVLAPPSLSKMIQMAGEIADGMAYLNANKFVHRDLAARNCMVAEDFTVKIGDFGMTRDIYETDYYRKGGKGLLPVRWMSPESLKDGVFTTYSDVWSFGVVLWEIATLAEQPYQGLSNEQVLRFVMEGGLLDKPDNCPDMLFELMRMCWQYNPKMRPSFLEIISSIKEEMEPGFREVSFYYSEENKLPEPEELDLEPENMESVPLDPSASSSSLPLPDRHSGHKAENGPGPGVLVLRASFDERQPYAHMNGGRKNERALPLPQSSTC
T1 sequence (P49841 whole entry): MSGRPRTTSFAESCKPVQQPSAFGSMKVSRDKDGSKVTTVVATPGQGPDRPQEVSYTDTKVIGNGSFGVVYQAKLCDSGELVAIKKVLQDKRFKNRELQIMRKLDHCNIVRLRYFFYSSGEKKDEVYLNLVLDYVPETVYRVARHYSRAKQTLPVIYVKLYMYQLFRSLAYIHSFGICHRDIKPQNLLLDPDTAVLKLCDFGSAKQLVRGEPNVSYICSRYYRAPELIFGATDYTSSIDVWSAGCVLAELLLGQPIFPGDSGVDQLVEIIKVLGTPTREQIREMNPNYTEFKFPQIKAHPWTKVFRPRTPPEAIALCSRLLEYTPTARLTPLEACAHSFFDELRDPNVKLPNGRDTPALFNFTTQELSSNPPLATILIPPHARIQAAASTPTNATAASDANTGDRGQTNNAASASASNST

Consider `O=C(C1CCNCC1)N1CCC[C@H]1c1nc(Nc2cc(C3CC3)[nH]n2)c2cccn2n1` [Example 6, (S)-(2-(4-(5-Cyclopropyl-1H-pyrazol-3-ylamino)pyrrolo[1,2-f][1,2,4]triazin-2-yl)pyrrolidin-1-yl)(piperidin-4-yl)methanone], for which the figures for the IC50 at GSK3-β, on IGF1-receptor and against GST-Met were 92 nM, 4050 nM and 10500 nM, respectively.
Turning to `O=C(c1cc[nH]n1)N1CCC[C@H]1c1nc(Nc2cc(C3CC3)[nH]n2)c2cccn2n1` [Example 7, (S)-(2-(4-(5-Cyclopropyl-1H-pyrazol-3-ylamino)pyrrolo[1,2-f][1,2,4]triazin-2-yl)pyrrolidin-1-yl)(1H-pyrazol-3-yl)methanone], the IC50 on GSK3-β stood at 51 nM; at IGF1-receptor, 68 nM; on GST-Met, 1170 nM.
The corresponding values for `O=C(c1cnccn1)N1CCC[C@@H]1c1nc(Nc2cc(C3CC3)[nH]n2)c2cccn2n1` [Example 12, (R)-(2-(4-(5-Cyclopropyl-1H-pyrazol-3-ylamino)pyrrolo[1,2-f][1,2,4]triazin-2-yl)pyrrolidin-1-yl)(pyrazin-2-yl)methanone] are 3 nM, 4930 nM and 10800 nM.
For the molecule `O=C(c1nccs1)N1CCC[C@@H]1c1nc(Nc2cc(C3CC3)[nH]n2)c2cccn2n1` [Example 15, (R)-(2-(4-(5-Cyclopropyl-1H-pyrazol-3-ylamino)pyrrolo[1,2-f][1,2,4]triazin-2-yl)pyrrolidin-1-yl)(thiazol-2-yl)methanone], the 50% inhibitory concentration (IC50) on GSK3-β came to 11 nM; on IGF1-receptor, 2520 nM; against GST-Met it was 6330 nM.

A word on the IC50: it is the concentration at which inhibition is half-maximal.
